In one experiment the test system is Candida albicans. Briefly: Susceptibility to combination of antifungal agents on disks (Example 2). As to conditions: Candida albicans isolate; in combination with amphotericin B. Format: cell-based. The source says:
(§1) The method of the present invention also may be used to test combinations of antifungal agents. In this method, more than one antifungal agent of known concentration is impregnated in each test disk.
(§2) Each disk is impregnated with a particular known concentration of at least one particular antifungal agent, except for the control disks. When the susceptibility of a fungus to combinations of antifungal agents is being tested, more than one antifungal agent is impregnated in each test disk.
(§3) The susceptibility of two other isolates to combinations of antifungal agents were tested by combining more than one antifungal agent on each test disk. A series of test disks were prepared containing various combinations of antifungal agents in various concentrations and were used in the method of the present invention. The results of this procedure are summarized in the following specific, non-limiting examples:
This is a significant reduction in amphotericin B.

Another experiment deals with Candida tropicalis. Briefly: Susceptibility to combination of antifungal agents on disks (Example 3). Format: cell-based. The following applies: in combination with amphotericin B 0.05 μg/ml.
From the text: as §1, §2, §3
An isolate of Candida tropicalis was initially tested for amphotericin B susceptibility of 0.5 μg/ml. When a combination of amphotericin B and tetracycline were combined on the disks used in the testing procedure according to the present invention, effective inhibition of the isolate occurred using 0.05 μg/ml of amphotericin B and 0.2 μg/ml of tetracycline.

Data on 1 molecule can be found in patent US4168206A, “Impregnated disk method for testing antifungal susceptibility” (Philadelphia College of Osteopathic Medicine, priority 1977, dated 1979).

For `CN(C)C1C(=O)C(C(N)=O)=C(O)C2(O)C(=O)C3=C(O)c4c(O)cccc4C(C)(O)C3CC12` (centres unmarked) [tetracycline], the tetracycline susceptibility in the experiment with Candida albicans came out at 0.1 µg/mL. Moreover, the “effective inhibition of the isolate, concentration of tetracycline” value with Candida tropicalis is 0.2 µg/mL.
